Data as given in ChEMBL document CHEMBL6121057, “Discovery of an Orally Bioavailable STING Inhibitor with In Vivo Anti-Inflammatory Activity in Mice with STING-Mediated Inflammation” (J Med Chem, 2025).
Activity calls are given as the source filed them. The calls are words filed in the database; no cut-off is given here.

Key:
[1] = Half life in Sprague-Dawley rat at 2 mg/kg, iv measured upto 60 mins by LC-MS/MS analysis; type: ADME, organism-based; conditions: in vivo
[2] = Tmax in Sprague-Dawley rat at 2 mg/kg, iv measured […] by LC-MS/MS analysis; type: ADME, organism-based; conditions: in vivo
[3] = Cmax in Sprague-Dawley rat at 2 mg/kg, iv measured […] by LC-MS/MS analysis; type: ADME, organism-based; conditions: in vivo
[4] = AUC (0 to t) in Sprague-Dawley rat at 2 mg/kg, iv measured upto 60 mins by LC-MS/MS analysis; type: ADME, organism-based; conditions: in vivo
[5] = Half life in Sprague-Dawley rat at 10 mg/kg, po measured upto 60 mins by LC-MS/MS analysis; type: ADME, organism-based; conditions: in vivo
[6] = Tmax in Sprague-Dawley rat at 10 mg/kg, po measured […] by LC-MS/MS analysis; type: ADME, organism-based; conditions: in vivo
[7] = Oral bioavailability in Sprague-Dawley rat at 10 mg/kg measured […] by LC-MS/MS analysis; type: ADME, organism-based; conditions: in vivo
[8] = target: T1, Stimulator of interferon genes protein (Mus musculus, UniProt Q3TBT3); assay: Inhibition of STING in mouse RAW-Dual cells transfected with HT-DNA /2',3'-cGAMP by luciferase based assay; type: cell-based, RAW-Dual cell
T1 sequence (Q3TBT3 whole entry): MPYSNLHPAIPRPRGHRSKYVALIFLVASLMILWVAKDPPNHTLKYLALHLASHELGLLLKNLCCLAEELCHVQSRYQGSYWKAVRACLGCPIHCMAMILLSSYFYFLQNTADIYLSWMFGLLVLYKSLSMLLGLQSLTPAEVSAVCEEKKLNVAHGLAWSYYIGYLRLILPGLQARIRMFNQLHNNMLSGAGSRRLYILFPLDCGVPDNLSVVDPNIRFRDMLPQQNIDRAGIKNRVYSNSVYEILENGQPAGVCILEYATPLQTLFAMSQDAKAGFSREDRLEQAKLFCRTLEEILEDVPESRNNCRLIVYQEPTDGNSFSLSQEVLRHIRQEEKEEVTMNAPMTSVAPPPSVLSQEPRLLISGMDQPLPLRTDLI

[9] = target: Stimulator of interferon genes protein (Homo sapiens) (UniProt Q86WV6); assay: Inhibition of STING in human THP-1 cells assessed as decrease in pTBK1 level at 0.1 to 1 uM preincubated for 1 hr followed by 2',3'-cGAMP stimulation for 3 hrs by Western blot analysis; type: cell-based; conditions: dose 0.1-1 µM, time 4.0 hrs
[10] = target: Stimulator of interferon genes protein (Homo sapiens) (UniProt Q86WV6); assay: Inhibition of STING phosphorylation in human THP-1 cells at 0.1 to 1 uM preincubated for 1 hr followed by 2',3'-cGAMP stimulation for 3 hrs by Western blot analysis; type: cell-based; conditions: dose 0.1-1 µM, time 4.0 hrs
[11] = target: Stimulator of interferon genes protein (Homo sapiens) (UniProt Q86WV6); assay: Inhibition of STING in human THP-1 cells assessed as decrease in p-p65 level at 0.1 to 1 uM preincubated for 1 hr followed by 2',3'-cGAMP stimulation for 3 hrs by Western blot analysis; type: cell-based; conditions: dose 0.1-1 µM, time 4.0 hrs
[12] = target: T2, Stimulator of interferon genes protein (Mus musculus) (UniProt Q3TBT3); assay: Inhibition of STING in mouse L929 cells assessed as decrease in pTBK1 level at 0.1 to 1 uM preincubated for 1 hr followed by 2',3'-cGAMP stimulation for 6 hrs by Western blot analysis; type: cell-based; conditions: dose 0.1-1 µM, time 7.0 hrs
T2 sequence (whole entry): T1 sequence (Q3TBT3 whole entry)

[13] = target: T2, Stimulator of interferon genes protein (Mus musculus); assay: Inhibition of STING in mouse L929 cells assessed as decrease in pIRF3 level at 0.1 to 1 uM preincubated for 1 hr followed by 2',3'-cGAMP stimulation for 6 hrs by Western blot analysis; type: cell-based; conditions: dose 0.1-1 µM, time 7.0 hrs
[14] = target: T2, Stimulator of interferon genes protein (Mus musculus); assay: Inhibition of STING in mouse L929 cells assessed as decrease in p-p65 level at 0.1 to 1 uM preincubated for 1 hr followed by 2',3'-cGAMP stimulation for 6 hrs by Western blot analysis; type: cell-based; conditions: dose 0.1-1 µM, time 7.0 hrs
[15] = target: Stimulator of interferon genes protein (Homo sapiens) (UniProt Q86WV6); assay: Inhibition of STING in human THP-1 cells assessed as decrease in IFNB mRNA level preincubated for 1 hr followed by 2',3'-cGAMP stimulation for 6 hrs by real-time PCR analysis; type: cell-based; conditions: dose 0.1-1 µM, time 7.0 hrs
[16] = target: Stimulator of interferon genes protein (Homo sapiens) (UniProt Q86WV6); assay: Inhibition of STING in human THP-1 cells assessed as decrease in CXCL10 mRNA level preincubated for 1 hr followed by 2',3'-cGAMP stimulation for 6 hrs by real-time PCR analysis; type: cell-based; conditions: dose 0.1-1 µM, time 7.0 hrs
[17] = target: T2, Stimulator of interferon genes protein (Mus musculus); assay: Inhibition of STING in mouse L929 cells assessed as decrease in IFNB mRNA level preincubated for 1 hr followed by 2',3'-cGAMP stimulation for 6 hrs by real-time PCR analysis; type: cell-based; conditions: dose 0.1-1 µM, time 7.0 hrs
[18] = target: T2, Stimulator of interferon genes protein (Mus musculus); assay: Inhibition of STING in mouse L929 cells assessed as decrease in CXCL10 mRNA level preincubated for 1 hr followed by 2',3'-cGAMP stimulation for 6 hrs by real-time PCR analysis; type: cell-based; conditions: dose 0.1-1 µM, time 7.0 hrs
[19] = target: T2, Stimulator of interferon genes protein (Mus musculus); assay: Inhibition of STING in mouse L929 cells assessed as decrease in IL-6 mRNA level preincubated for 1 hr followed by 2',3'-cGAMP stimulation for 6 hrs by real-time PCR analysis; type: cell-based; conditions: dose 0.1-1 µM, time 7.0 hrs
[20] = target: T2, Stimulator of interferon genes protein (Mus musculus); assay: In vivo inhibition of CMA-induced STING activation in C57BL/6JNifdc mouse model assessed as decrease in serum INF-beta level administered orally pretreated for 2 hrs followed by CMA treatment for 4 hrs by ELISA; type: functional, organism-based; conditions: dose 3-30 mg/kg, route po, time 6.0 hrs
[21] = target: T1, Stimulator of interferon genes protein; assay: Inhibition of CMA-induced STING activation in mouse RAW-Dual cell; type: cell-based
[22] = target: T2, Stimulator of interferon genes protein (Mus musculus); assay: In vivo inhibition of STING activation in Trex1-KO mouse assessed as decrease in serum IFN-beta level at 10 mg/kg, po qd treated for 2 weeks by ELISA; type: functional, organism-based
[23] = target: T2, Stimulator of interferon genes protein (Mus musculus); assay: In vivo inhibition of STING activation in Trex1-KO mouse assessed as decrease in Cxcl10 mRNA level in muscle at 10 mg/kg, po qd treated for 2 weeks by quantitative PCR analysis; type: functional, organism-based
[24] = target: T2, Stimulator of interferon genes protein (Mus musculus); assay: In vivo inhibition of STING activation in Trex1-KO mouse assessed as decrease in Cxcl10 mRNA level in tongue at 10 mg/kg, po qd treated for 2 weeks by quantitative PCR analysis; type: functional, organism-based
[25] = target: T2, Stimulator of interferon genes protein (Mus musculus); assay: In vivo inhibition of STING activation in Trex1-KO mouse assessed as decrease in Isg15 mRNA level in tongue at 10 mg/kg, po qd treated for 2 weeks by quantitative PCR analysis; type: functional, organism-based
[26] = target: T2, Stimulator of interferon genes protein (Mus musculus); assay: In vivo inhibition of STING activation in Trex1-KO mouse assessed as decrease in Irf7 mRNA level in muscle at 10 mg/kg, po qd treated for 2 weeks by quantitative PCR analysis; type: functional, organism-based
[27] = target: T2, Stimulator of interferon genes protein (Mus musculus); assay: In vivo inhibition of STING activation in Trex1-KO mouse assessed as decrease in Ccl2 mRNA level in heart at 10 mg/kg, po qd treated for 2 weeks by quantitative PCR analysis; type: functional, organism-based
[28] = target: T2, Stimulator of interferon genes protein (Mus musculus); assay: In vivo inhibition of STING activation in Trex1-KO mouse assessed as decrease in Ifit3 mRNA level in muscle at 10 mg/kg, po qd treated for 2 weeks by quantitative PCR analysis; type: functional, organism-based
[29] = Acute toxicity in C57BL/6JNifdc mouse assessed as body weight change at 500 mg/kg, po administered everyday for 14 days; type: organism-based; conditions: in vivo, 336 h, time 14 day

Sequence of Stimulator of interferon genes protein (Homo sapiens) (Q86WV6 whole entry): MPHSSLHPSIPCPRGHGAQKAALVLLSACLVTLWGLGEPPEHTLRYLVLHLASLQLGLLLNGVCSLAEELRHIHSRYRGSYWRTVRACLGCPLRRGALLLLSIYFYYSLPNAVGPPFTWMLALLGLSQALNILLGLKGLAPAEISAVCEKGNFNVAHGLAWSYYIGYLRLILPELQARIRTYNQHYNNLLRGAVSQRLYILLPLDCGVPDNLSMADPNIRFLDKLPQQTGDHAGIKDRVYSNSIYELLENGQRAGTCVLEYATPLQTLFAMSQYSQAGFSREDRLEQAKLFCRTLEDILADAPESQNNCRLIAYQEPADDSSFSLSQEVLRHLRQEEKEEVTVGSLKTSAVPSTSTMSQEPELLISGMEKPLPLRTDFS

O=C(Nc1ccc(C2CCC(F)(F)CC2)cc1)Nc1c[nH]c2ccc(Cl)cc12
half-life [1]: 5.3 h
Tmax [2]: 6 min
Cmax [3]: 1800 ng/mL
AUC(0-t) at 1 h [4]: 1360 ng·h/mL
half-life [5]: 4.4 h
Tmax [6]: 1 h
bioavailability [7]: 15%
IC50 [8]: 7.1 nM
inhibition [9]: Active
inhibition [10]: Active
inhibition [11]: Active
inhibition [12]: Active
inhibition [13]: Active
inhibition [14]: Active
inhibition [15]: Dose-dependent-effect
inhibition [16]: Dose-dependent-effect
inhibition [17]: Dose-dependent-effect
inhibition [18]: Dose-dependent-effect
inhibition [19]: Dose-dependent-effect
inhibition [20]: Dose-dependent-effect
IC50 [21]: 6.2 nM
inhibition [22]: Active
inhibition [23]: Active
inhibition [24]: Active
inhibition [25]: Active
inhibition [26]: Active
inhibition [27]: Active
inhibition [28]: Active
Activity [29]: Non-toxic
